# Data: PubChem BioAssay AID330 (DTP/NCI, 2004)
# Where “and” joins values, the source holds several entries; their conditions need not be identical. Identical values can stand only once. Toxic doses and inconclusive results are not listed.
# Tested on: P388 leukemia ip, CD2F1 mice, survival T/C
# Assay: NCI In Vivo Anticancer Drug Screen. Data for tumor model P388 Leukemia (intraperitoneal) in CD2F1 (CDF1) mice
# Conditions: endpoint: median survival time, higher = longer survival
# Method in brief: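 Mice carrying the transplanted tumor received test compound or vehicle. Survival was recorded in each group, and the value is the treated-group measurement divided by that of the vehicle-treated control group.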
# [1] = dose: 100.0 mg/kg/injection, schedule: Q04DX003 (ip), vehicle: Klucel (hydroxypropylcellulose) (HPC)
# [2] = dose: 200.0 mg/kg/injection, schedule: Q04DX003 (ip), vehicle: Klucel (hydroxypropylcellulose) (HPC)
# [3] = dose: 400.0 mg/kg/injection, schedule: Q04DX003 (ip), vehicle: Klucel (hydroxypropylcellulose) (HPC)
# [4] = dose: 50.0 mg/kg/injection, schedule: Q01DX009 (ip), vehicle: Klucel (hydroxypropylcellulose) (HPC)
# [5] = dose: 100.0 mg/kg/injection, schedule: Q01DX009 (ip), vehicle: Klucel (hydroxypropylcellulose) (HPC)
# [6] = dose: 200.0 mg/kg/injection, schedule: Q01DX009 (ip), vehicle: Klucel (hydroxypropylcellulose) (HPC)
# [7] = dose: 100.0 mg/kg/injection, schedule: Q01DX005 (ip), vehicle: saline with Tween-80
# [8] = dose: 200.0 mg/kg/injection, schedule: Q01DX005 (ip), vehicle: saline with Tween-80
# [9] = dose: 15.0 mg/kg/injection, schedule: Q01DX005 (ip), vehicle: saline with Tween-80
# [10] = dose: 30.0 mg/kg/injection, schedule: Q01DX005 (ip), vehicle: saline with Tween-80
# [11] = dose: 50.0 mg/kg/injection, schedule: Q01DX005 (ip), vehicle: saline with Tween-80
# [12] = dose: 60.0 mg/kg/injection, schedule: Q01DX005 (ip), vehicle: saline with Tween-80
# [13] = dose: 120.0 mg/kg/injection, schedule: Q01DX005 (ip), vehicle: saline with Tween-80
# [14] = dose: 50.0 mg/kg/injection, schedule: Q01DX009 (ip), vehicle: saline with Tween-80
# [15] = dose: 50.0 mg/kg/injection, schedule: Q04DX003 (ip), vehicle: saline
# [16] = dose: 100.0 mg/kg/injection, schedule: Q04DX003 (ip), vehicle: saline
# [17] = dose: 50.0 mg/kg/injection, schedule: Q01DX005 (ip), vehicle: Klucel (hydroxypropylcellulose) (HPC)
# [18] = dose: 100.0 mg/kg/injection, schedule: Q01DX005 (ip), vehicle: Klucel (hydroxypropylcellulose) (HPC)
# [19] = dose: 200.0 mg/kg/injection, schedule: Q01DX005 (ip), vehicle: Klucel (hydroxypropylcellulose) (HPC)
# [20] = dose: 50.0 mg/kg/injection, schedule: Q01DX005 (ip), vehicle: saline
# [21] = dose: 100.0 mg/kg/injection, schedule: Q01DX005 (ip), vehicle: saline
# [22] = dose: 200.0 mg/kg/injection, schedule: Q01DX005 (ip), vehicle: saline
# [23] = dose: 25.0 mg/kg/injection, schedule: Q01DX005 (ip), vehicle: Klucel (hydroxypropylcellulose) (HPC)
# [24] = dose: 6.25 mg/kg/injection, schedule: Q01DX009 (ip), vehicle: saline
# [25] = dose: 12.5 mg/kg/injection, schedule: Q01DX009 (ip), vehicle: saline
compound,measurement,setting,value
COc1cc(OC)c(OC)cc1/C=C/[N+](=O)[O-],T/C,[1],102 % of control
same,T/C,[2],100 % of control
same,T/C,[3],111 % of control
CCCCCCCCCCCCCCCC(=O)N(CCC#N)C(C)(C)CCC(C)(C)N(CCC#N)C(=O)CCCCCCCCCCCCCCC,T/C,"dose: 12.5 mg/kg/injection, schedule: Q01DX009 (ip), vehicle: Klucel (hydroxypropylcellulose) (HPC)",99 % of control
same,T/C,"dose: 12.5 mg/kg/injection, schedule: Q04DX003 (ip), vehicle: Klucel (hydroxypropylcellulose) (HPC)",88 % of control
same,T/C,"dose: 25.0 mg/kg/injection, schedule: Q01DX009 (ip), vehicle: Klucel (hydroxypropylcellulose) (HPC)",98 % of control
same,T/C,"dose: 25.0 mg/kg/injection, schedule: Q04DX003 (ip), vehicle: Klucel (hydroxypropylcellulose) (HPC)",88 % of control
same,T/C,[4],97 % of control
same,T/C,[5],91 % of control
same,T/C,[6],91 % of control
same,T/C,[2],94 % of control
CC[C@@]1(O)C[C@H](OC2CCC(OC3CC(OC(C)=O)C(OC(C)=O)C(C)O3)C(C)O2)c2c(O)c3c(c(O)c2[C@H]1C(=O)OC)C(=O)c1cccc(O)c1C3=O (stereo partly drawn),T/C,"dose: 3.13 mg/kg/injection, schedule: Q04DX003 (ip), vehicle: distilled water + Tween-80",100 % of control
same,T/C,"dose: 6.25 mg/kg/injection, schedule: Q04DX003 (ip), vehicle: distilled water + Tween-80",100 % of control
same,T/C,"dose: 12.5 mg/kg/injection, schedule: Q04DX003 (ip), vehicle: distilled water + Tween-80",101 % of control
same,T/C,"dose: 25.0 mg/kg/injection, schedule: Q04DX003 (ip), vehicle: distilled water + Tween-80",105 % of control
same,T/C,"dose: 50.0 mg/kg/injection, schedule: Q04DX003 (ip), vehicle: distilled water + Tween-80",103 % of control
Cc1cc(C)c(C#N)c(SCC#CCSc2nc(C)cc(C)c2C#N)n1,T/C,"dose: 1.5 mg/kg/injection, schedule: Q01DX005 (ip), vehicle: saline with Tween-80",103 % of control
same,T/C,"dose: 3.0 mg/kg/injection, schedule: Q01DX005 (ip), vehicle: saline with Tween-80",103 % of control
same,T/C,"dose: 6.0 mg/kg/injection, schedule: Q01DX005 (ip), vehicle: saline with Tween-80",94 % of control
same,T/C,"dose: 6.25 mg/kg/injection, schedule: Q01DX005 (ip), vehicle: saline with Tween-80",89 % of control
same,T/C,[7],91 % of control
same,T/C,[8],91 % of control
CCOc1ccc2nc3ccccc3c(N)c2c1,T/C,"dose: 7.5 mg/kg/injection, schedule: Q01DX005 (ip), vehicle: saline with Tween-80",103 % of control and 112 % of control
same,T/C,[9],113 % of control
same,T/C,[10],124 % of control
COc1ccc2cc1Oc1ccc(cc1)CC1c3cc(OC)c(OC)c(c3CCN1C)Oc1c(OC)c(OC)cc3c1[C@H](C2)NCC3 (stereo partly drawn),T/C,"dose: 2.75 mg/kg/injection, schedule: Q01DX005 (ip), vehicle: Klucel (hydroxypropylcellulose) (HPC)",90 % of control
same,T/C,"dose: 5.5 mg/kg/injection, schedule: Q01DX005 (ip), vehicle: Klucel (hydroxypropylcellulose) (HPC)",99 % of control
same,T/C,"dose: 11.0 mg/kg/injection, schedule: Q01DX005 (ip), vehicle: Klucel (hydroxypropylcellulose) (HPC)",99 % of control
same,T/C,"dose: 22.0 mg/kg/injection, schedule: Q01DX005 (ip), vehicle: Klucel (hydroxypropylcellulose) (HPC)",94 % of control
CN(C)[C@@H]1C(=O)C(C(=O)NCN2CCCCC2)=C(O)[C@@]2(O)C(=O)C3=C(O)c4c(O)cccc4[C@@](C)(O)[C@H]3C[C@@H]12,T/C,[11],95 % of control
same,T/C,[7],95 % of control
same,T/C,[8],104 % of control
CCOC(=O)C1C(=O)[C@H](C(=O)OC)C2CCCC3CCCC1N32 (stereo partly drawn),T/C,[12],86 % of control
same,T/C,[13],87 % of control
NC(N)=N/N=C/c1ccc(Cl)c(Cl)c1,T/C,"dose: 12.5 mg/kg/injection, schedule: Q01DX009 (ip), vehicle: saline with Tween-80",100 % of control
same,T/C,"dose: 25.0 mg/kg/injection, schedule: Q01DX009 (ip), vehicle: saline with Tween-80",95 % of control
same,T/C,[14],86 % of control
CCS/C(N)=C(\C#N)C(SCC)(SCC)SCC,T/C,[15],107 % of control
same,T/C,[16],106 % of control
CC1(C)Oc2ccc3ccc(=O)oc3c2C(O)C1O (stereo not drawn),T/C,[17],97 % of control
same,T/C,[18],96 % of control
same,T/C,[19],92 % of control
COc1ccc2c(c1)CSC(c1ccccc1)C2O (stereo not drawn),T/C,[14],98 % of control
same,T/C,"dose: 100.0 mg/kg/injection, schedule: Q01DX009 (ip), vehicle: saline with Tween-80",93 % of control
same,T/C,"dose: 200.0 mg/kg/injection, schedule: Q01DX009 (ip), vehicle: saline with Tween-80",99 % of control
O=C1C2C(C(=O)N1c1ccccc1)C1(c3cccnc3)NC(=O)C2(Cc2cccnc2)c2ccccc21 (stereo not drawn),T/C,[9],104 % of control
same,T/C,[10],100 % of control and 96 % of control
same,T/C,[12],104 % of control and 88 % of control and 91 % of control
same,T/C,[13],88 % of control
same,T/C,"dose: 240.0 mg/kg/injection, schedule: Q01DX005 (ip), vehicle: saline with Tween-80",86 % of control
CCCCCOCCCCC,T/C,"dose: 25.0 mg/kg/injection, schedule: Q01DX005 (ip), vehicle: saline",100 % of control
same,T/C,[20],99 % of control
same,T/C,[21],95 % of control
same,T/C,[22],96 % of control
COc1c(Br)c2c(c([N+](=O)[O-])c1OC)C(=O)OC2C1c2c(cc3c(c2OC)OCO3)CCN1C (stereo not drawn),T/C,[23],91 % of control
same,T/C,[17],104 % of control
same,T/C,[18],104 % of control
same,T/C,[19],103 % of control
CC1=Nc2ccccc2SC2(C1)C(C1COC(C)(C)O1)OC1OC(C)(C)OC12 (stereo not drawn),T/C,[11],93 % of control
same,T/C,[7],94 % of control
same,T/C,[8],92 % of control
N#CCN=C(N)NN,T/C,[1],105 % of control
same,T/C,[2],94 % of control
same,T/C,[3],108 % of control
CC(C)CCCC(C)C1CCC2C3CC=C4CC(O)CCC4(C)C3CCC12C (stereo not drawn) (tested in a mixture with another compound),T/C,"dose: 3.12 mg/kg/injection, schedule: Q01DX009 (ip), vehicle: saline",87 % of control
same,T/C,[24],92 % of control
same,T/C,[25],94 % of control
same,T/C,"dose: 25.0 mg/kg/injection, schedule: Q01DX009 (ip), vehicle: saline",94 % of control
S=c1cn[nH]c2ccc(S)cc12,T/C,[11],88 % of control
same,T/C,[7],99 % of control
same,T/C,[8],97 % of control
C=C=C(C)C(C(C)C)N1CCCC1 (stereo not drawn),T/C,[20],113 % of control
same,T/C,[21],104 % of control
O=C(CCCCl)CC(O)(C(F)(F)Cl)C(F)(F)Cl,T/C,"dose: 25.0 mg/kg/injection, schedule: Q04DX003 (ip), vehicle: saline",100 % of control
same,T/C,[15],100 % of control
same,T/C,[16],95 % of control
Cc1cnn(C(C(=O)c2ccccc2)c2ccccc2)c1-c1ccccc1 (stereo not drawn),T/C,[4],105 % of control
same,T/C,[5],105 % of control
same,T/C,[6],98 % of control
COc1cccc2c1C(=O)c1c(O)c3c(c(O)c1C2=O)C[C@@](O)(C(C)=O)C[C@@H]3OC1CC(NC(C)=O)C(O)C(C)O1 (stereo partly drawn),T/C,"dose: 2.0 mg/kg/injection, schedule: Q01DX009 (ip), vehicle: saline",113 % of control
same,T/C,"dose: 3.13 mg/kg/injection, schedule: Q01DX009 (ip), vehicle: saline",157 % of control
same,T/C,[24],109 % of control
same,T/C,[25],166 % of control
CCCCNC(=O)CC(=O)NCCCC,T/C,[23],99 % of control
same,T/C,[17],100 % of control
same,T/C,[18],99 % of control
same,T/C,[19],100 % of control
COC(=O)C(N)COC(=O)c1ccccc1 (stereo not drawn),T/C,[20],101 % of control
same,T/C,[21],100 % of control
same,T/C,[22],100 % of control
CC1CCC(C(C)C)C(NC(=O)C[n+]2cccc(C(N)=O)c2)C1 (stereo not drawn),T/C,"dose: 12.5 mg/kg/injection, schedule: Q04DX002 (ip), vehicle: saline",99 % of control
same,T/C,"dose: 25.0 mg/kg/injection, schedule: Q04DX002 (ip), vehicle: saline",105 % of control
same,T/C,"dose: 50.0 mg/kg/injection, schedule: Q04DX002 (ip), vehicle: saline",101 % of control
